Among the data in ChEMBL document CHEMBL2303647, “Data associated with the publication PLoS ONE, 8(3), e57888, (2013) PMID: 23505445. Compounds: GSK PKIS; Assays: NIH NCATS” are AC50 values, retold here.

Molecules are shown by their SMILES.

Test [1] deals with T1, Coelenterazine h 2-monooxygenase (Renilla reniformis, UniProt P27652).
T1 sequence (P27652 whole entry): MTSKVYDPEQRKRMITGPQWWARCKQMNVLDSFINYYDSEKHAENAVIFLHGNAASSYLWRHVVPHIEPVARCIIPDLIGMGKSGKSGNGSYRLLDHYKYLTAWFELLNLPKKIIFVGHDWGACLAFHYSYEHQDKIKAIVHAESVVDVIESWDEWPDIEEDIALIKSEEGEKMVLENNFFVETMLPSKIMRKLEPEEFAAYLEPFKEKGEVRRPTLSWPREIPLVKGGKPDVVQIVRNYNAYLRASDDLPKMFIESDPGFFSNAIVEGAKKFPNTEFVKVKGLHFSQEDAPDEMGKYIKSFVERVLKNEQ
Description: GSK_PKIS: Inhibition of Sea Pansy Luciferase (Data from PubChem: AID 652015) [NIH NCATS]

Test [2] addresses Luciferin 4-monooxygenase (Photinus pyralis, UniProt P08659).
Description: GSK_PKIS: Inhibition of Firefly Luciferase (Data from PubChem: AID 652016) [NIH NCATS]

Chain of Luciferin 4-monooxygenase (P08659 whole entry): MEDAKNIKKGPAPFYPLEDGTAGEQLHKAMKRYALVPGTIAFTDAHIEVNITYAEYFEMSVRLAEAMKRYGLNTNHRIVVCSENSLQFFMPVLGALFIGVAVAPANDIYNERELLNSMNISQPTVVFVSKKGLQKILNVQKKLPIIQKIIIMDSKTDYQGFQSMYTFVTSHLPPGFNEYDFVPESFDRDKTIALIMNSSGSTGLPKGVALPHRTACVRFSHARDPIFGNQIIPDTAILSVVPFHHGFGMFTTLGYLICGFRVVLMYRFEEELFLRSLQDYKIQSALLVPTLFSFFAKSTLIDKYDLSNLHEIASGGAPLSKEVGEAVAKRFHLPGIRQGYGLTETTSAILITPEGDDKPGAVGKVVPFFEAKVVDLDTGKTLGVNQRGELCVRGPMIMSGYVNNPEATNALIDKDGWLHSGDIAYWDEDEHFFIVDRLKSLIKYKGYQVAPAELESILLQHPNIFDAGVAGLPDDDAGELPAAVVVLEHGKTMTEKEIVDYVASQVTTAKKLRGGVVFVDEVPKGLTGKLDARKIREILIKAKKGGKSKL

One may read the AC50 as the midpoint of the concentration-response curve, whichever way the signal moves. As to `Fc1ccc(-c2ncn(C3CCNCC3)c2-c2ccnc(Oc3ccc(Oc4ccccc4)cc3)n2)cc1`, the AC50 in test [1] (read-out: AC50) is 20.6 µM; in test [2] it was “Phenotype: Inactive; Curve_Description: None”.
For the molecule `O=C1NC(=O)C(N2CCc3ccccc32)=C1c1ccc(Cl)cc1`, the AC50 came to 20.6 µM in test [1] (read-out: AC50) and 6.51 µM in test [2] (read-out: AC50).
For the molecule `O=C1NC(=O)C(c2cccc(Cl)c2)=C1Nc1ccc(O)c(Cl)c1`, the AC50 in test [1] (read-out: AC50) is 36.6 µM; in test [2] it was “Phenotype: Inactive; Curve_Description: None”.
For the molecule `O=C1Nc2ccccc2/C1=C1\CCc2cc(O)ccc21`, the AC50 was 20.6 µM in test [1] (read-out: AC50) and 5.17 µM in test [2] (read-out: AC50).
With `NC(=O)Cc1ccccc1Oc1nccc(-c2c(-c3ccc(F)cc3)ncn2C2CCNCC2)n1`, the AC50 entry in test [1] and in test [2] was “Phenotype: Inactive; Curve_Description: None” in each case.
Take `Fc1ccc(-c2ncn(C3CCNCC3)c2-c2ccnc(Oc3ccc(F)c(F)c3)n2)cc1`: the AC50 result in test [1] and in test [2] was “Phenotype: Inactive; Curve_Description: None” throughout.
Regarding `Nc1nonc1-c1nc2cnccc2n1C1CC1`, the AC50 result in test [1] and in test [2] was “Phenotype: Inactive; Curve_Description: None” each time.
In the case of `NCc1ccc(-n2c(-c3nonc3N)nc3cnccc32)cc1`, the AC50 in test [1] (read-out: AC50) was 41.1 µM; in test [2] it was “Phenotype: Inactive; Curve_Description: None”.
With `CCn1c(-c2nonc2N)nc2cncc(C(=O)N3CCNCC3)c21.Cl`, the AC50 entry is recorded as “Phenotype: Activator; Curve_Description: None” in test [1] and “Phenotype: Inactive; Curve_Description: None” in test [2].
For the molecule `c1ccc(Cc2nc3ccc(Nc4ncnc5ccccc45)cc3[nH]2)cc1`, the AC50 worked out at 18.3 µM in test [1] (read-out: AC50) and 16.3 µM in test [2] (read-out: AC50).
`COc1ccc2ncnc(Nc3ccc(OCc4ccccc4)cc3)c2c1.Cl`: the AC50 is 0.0007 µM in test [1] (read-out: AC50) and “Phenotype: Inactive; Curve_Description: None” in test [2].
Regarding `Cl.Oc1cccc(-c2nc(-c3ccccc3)[nH]c2-c2ccncc2)c1`, the AC50 in test [1] (read-out: AC50) was 23.1 µM; in test [2], “Phenotype: Inactive; Curve_Description: None”.
Take `CN(C)CCOc1ccc(-c2nc(-c3ccncc3)c(-c3ccc4c(c3)CC/C4=N\O)[nH]2)cc1`: the AC50 in test [1] (read-out: AC50) was found to be 29.1 µM; in test [2] (read-out: AC50), 14.6 µM.
As for `CCN1CCC(CC(=O)Nc2n[nH]c3nc(-c4cccs4)c(Br)cc23)CC1.O=C(O)C(O)C(O)C(=O)O`, the AC50 in test [1] (read-out: AC50) was 29.1 µM; in test [2], “Phenotype: Inactive; Curve_Description: None”.
The corresponding values for `COc1ccc2cc(-c3c(-c4ccncc4)nc(-c4ccc([S+](C)[O-])cc4C)n3C)ccc2c1` (stereo not given) are 41.1 µM and “Phenotype: Inactive; Curve_Description: None”.
As to `CN1CCC(C(=O)Nc2n[nH]c3nc(-c4ccc(O)cc4)c(Br)cc23)CC1`, the results for the AC50 in test [1] (read-out: AC50) and in test [2] were 32.6 µM and “Phenotype: Inactive; Curve_Description: None”, respectively.
On to `OCc1ccc(-c2nc(-c3ccccn3)c(-c3ccc4c(c3)OCO4)[nH]2)cc1`, for which the AC50 worked out at 41.1 µM in test [1] (read-out: AC50) and 18.3 µM in test [2] (read-out: AC50).
In the case of `Fc1ccc(-c2ncn(C3CCNCC3)c2-c2ccnc(Oc3ccc4c(c3)OCO4)n2)cc1`, the AC50 entry in test [1] is “Phenotype: Inactive; Curve_Description: None”; in test [2] (read-out: AC50) it was 32.6 µM.
For `NC(=O)c1ccc(Oc2nccc(-c3c(-c4ccc(F)cc4)ncn3C3CCNCC3)n2)cc1`, in that order: “Phenotype: Inactive; Curve_Description: None” and 29.1 µM.
With `Fc1ccc(-c2ncn(C3CCNCC3)c2-c2ccnc(Oc3ccccc3)n2)cc1`, the AC50 was found to be 18.3 µM in test [1] (read-out: AC50) and 20.6 µM in test [2] (read-out: AC50).
In the case of `COc1ccc(C2=C(N3CCc4ccccc43)C(=O)NC2=O)cc1`, the AC50 in test [1] (read-out: AC50) is 20.6 µM; in test [2], “Phenotype: Inactive; Curve_Description: None”.
As to `NS(=O)(=O)c1cccc(-c2ccc3c(NC(=O)C4CC4)n[nH]c3c2)c1`, the AC50 in test [1] (read-out: AC50) was 36.6 µM; in test [2] (read-out: AC50) it was 20.6 µM.
In the case of `CC1=C(C(=O)Nc2ccc3[nH]ncc3c2)C(c2ccc(F)cc2)NC(=O)N1` (stereo not given) [GSK-180736A], the AC50 result in test [1] and in test [2] was “Phenotype: Inactive; Curve_Description: None” throughout.
As for `CN(C)C(=O)O[C@H]1CN[C@H](C#Cc2cc3ncnc(Nc4ccc(OCc5cccc(F)c5)c(Cl)c4)c3s2)C1` [GSK-182497A], the AC50 entry in test [1] was “Phenotype: Inactive; Curve_Description: None”; in test [2] (read-out: AC50), 29.1 µM.
On to `CCNC(=O)O[C@H]1CN[C@H](C#Cc2cc3ncnc(Nc4ccc(OCc5cccc(F)c5)c(Cl)c4)c3s2)C1` [GSK-192082A], for which the AC50 result in test [1] and in test [2] was “Phenotype: Inactive; Curve_Description: None” each time.
For `Cl.O=C(O[C@H]1CN[C@H](C#Cc2cc3ncnc(Nc4ccc5c(cnn5Cc5ccccc5)c4)c3s2)C1)N1CCOCC1` [GSK-200398A], the concentration at half-maximal activity (AC50) result in test [1] was “Phenotype: Inactive; Curve_Description: None”; in test [2] (read-out: AC50), 18.3 µM.
Take `COc1cc2ncn(-c3cc(OCCc4ccccc4)c(C(N)=O)s3)c2cc1OC` [GSK-204925A]: the AC50 result in test [1] and in test [2] was “Phenotype: Inactive; Curve_Description: None” each time.
Consider `COc1cc2ncn(-c3cc(O[C@@H](C)c4ccccc4Cl)c(C(N)=O)s3)c2cc1OC` [GSK-237700A], for which the AC50 result in test [1] and in test [2] was “Phenotype: Inactive; Curve_Description: None” each time.
As for `COc1cc2ncn(-c3cc(O[C@H](C)c4ccccc4Cl)c(C(N)=O)s3)c2cc1OC` [GSK-237701A], the AC50 in test [1] (read-out: AC50) is 3.66 µM; in test [2] it was “Phenotype: Inactive; Curve_Description: None”.
Consider `CN(C)C(=O)O[C@@H]1CN[C@@H](C#Cc2cc3ncnc(Nc4ccc(OCc5cccc(F)c5)c(Cl)c4)c3s2)C1` [GSK-238063A], for which the results for the AC50 entry in test [1] and in test [2] (read-out: AC50) were “Phenotype: Inactive; Curve_Description: None” and 32.6 µM, respectively.
For `O=C(O)C(F)(F)F.O=C(O[C@H]1CN[C@H](C#Cc2cc3ncnc(Nc4ccc(Cc5ccccc5)cc4)c3s2)C1)N1CCOCC1` [GSK-238583A], the AC50 in test [1] (read-out: AC50) is 23.1 µM; in test [2] it was “Phenotype: Inactive; Curve_Description: None”.
`CCn1c(-c2nonc2N)nc2cnc(Oc3cccc(NC(=O)c4ccc(N(C)C)cc4)c3)cc21` [GSK-248233A]: the AC50 result is “Phenotype: Inactive; Curve_Description: None” in test [1] and 1.03 µM in test [2] (read-out: AC50).
With `O=C(O)C(F)(F)F.O=C(O[C@H]1CN[C@H](C#Cc2cc3ncnc(Nc4ccc5c(ccn5Cc5cc(F)ccc5F)c4)c3s2)C1)N1CCOCC1` [GSK-259178A], the AC50 result in test [1] and in test [2] was “Phenotype: Inactive; Curve_Description: None” throughout.
As to `CCn1c(-c2nonc2N)nc2cnc(Oc3cccc(NC(=O)c4ccc(OCCN5CCOCC5)cc4)c3)cc21.Cl` [GSK-269962B], the AC50 result in test [1] and in test [2] was “Phenotype: Inactive; Curve_Description: None” throughout.
For `CC1=C(C(=O)Nc2ccc3[nH]ncc3c2)C(c2ccc3ccccc3c2)CC(=O)N1` (stereo not given) [GSK-270822A], the results for the AC50 result in test [1] and in test [2] (read-out: AC50) were “Phenotype: Inactive; Curve_Description: None” and 41.1 µM, respectively.
For the molecule `CC1=C(C(=O)Nc2ccc3[nH]ncc3c2)C(c2ccc(Cl)c(Cl)c2)CC(=O)N1` (stereo not given) [GSK-299115A], the concentration at half-maximal activity (AC50) entry in test [1] and in test [2] was “Phenotype: Inactive; Curve_Description: None” in each case.
`CS(=O)(=O)CCNCc1cc(-c2cc3c(Nc4ccc(OCc5cccc(F)c5)c(Cl)c4)ncnc3s2)cs1` [GSK-300014A]: the AC50 result is “Phenotype: Activator; Curve_Description: None” in test [1] and “Phenotype: Inactive; Curve_Description: None” in test [2].
For `COc1cc2ncn(-c3cc(OCc4cccs4)c(C(N)=O)s3)c2cc1OC` [GSK-312948A], the AC50 is 9.19 µM in test [1] (read-out: AC50) and “Phenotype: Inactive; Curve_Description: None” in test [2].
For `COc1ccc2ncn(-c3cc(O[C@H](C)c4ccccc4Cl)c(C(N)=O)s3)c2c1` [GSK-317314A], the AC50 result in test [1] and in test [2] was “Phenotype: Inactive; Curve_Description: None” in each case.
Consider `COc1ccc2ncn(-c3cc(O[C@H](C)c4ccccc4C(F)(F)F)c(C(N)=O)s3)c2c1` [GSK-317315A], for which the AC50 is 20.6 µM in test [1] (read-out: AC50) and “Phenotype: Inactive; Curve_Description: None” in test [2].
For `CC1=C(C(=O)Nc2ccc3[nH]ncc3c2)C(c2ccc(F)cc2)N=C(c2ccc(C(F)(F)F)nc2)N1` (stereo not given) [GSK-317354A], the figures for the AC50 entry in test [1] and in test [2] (read-out: AC50) were “Phenotype: Activator; Curve_Description: None” and 41.1 µM, respectively.
With `COc1cc2ncn(-c3cc(OCc4ccccc4S(C)(=O)=O)c(C#N)s3)c2cc1OC` [GSK-319347A], the AC50 result in test [1] and in test [2] was “Phenotype: Inactive; Curve_Description: None” each time.
As to `C[C@@H](Oc1cc(-n2cnc3ccc(OCC4CCN(C)CC4)cc32)sc1C(N)=O)c1ccccc1C(F)(F)F` [GSK-326090A], the AC50 in test [1] (read-out: AC50) was 25.9 µM; in test [2], “Phenotype: Inactive; Curve_Description: None”.
With `CC1=C(C(=O)Nc2ccc3[nH]nc(C)c3c2)C(c2ccc(C(F)(F)F)cc2)CC(=O)N1` (stereo not given) [GSK-466314A], the AC50 result in test [1] and in test [2] was “Phenotype: Inactive; Curve_Description: None” in each case.
On to `CC1=C(C(=O)Nc2cc(Cl)c3[nH]ncc3c2)C(c2ccc(C(F)(F)F)cc2)CC(=O)N1` (stereo not given) [GSK-466317A], for which the AC50 entry in test [1] and in test [2] was “Phenotype: Inactive; Curve_Description: None” in each case.
